Paper PMC10726465, “Synthesis and Evaluation of Small Molecule Inhibitors of the Androgen Receptor N-Terminal Domain” (ACS Medicinal Chemistry Letters, 2023)
Read-outs that look alike come from different tables or passages of the source.

Target: T1, androgen receptor (AR) (Homo sapiens, UniProt P10275)
T1 sequence (P10275 1-920): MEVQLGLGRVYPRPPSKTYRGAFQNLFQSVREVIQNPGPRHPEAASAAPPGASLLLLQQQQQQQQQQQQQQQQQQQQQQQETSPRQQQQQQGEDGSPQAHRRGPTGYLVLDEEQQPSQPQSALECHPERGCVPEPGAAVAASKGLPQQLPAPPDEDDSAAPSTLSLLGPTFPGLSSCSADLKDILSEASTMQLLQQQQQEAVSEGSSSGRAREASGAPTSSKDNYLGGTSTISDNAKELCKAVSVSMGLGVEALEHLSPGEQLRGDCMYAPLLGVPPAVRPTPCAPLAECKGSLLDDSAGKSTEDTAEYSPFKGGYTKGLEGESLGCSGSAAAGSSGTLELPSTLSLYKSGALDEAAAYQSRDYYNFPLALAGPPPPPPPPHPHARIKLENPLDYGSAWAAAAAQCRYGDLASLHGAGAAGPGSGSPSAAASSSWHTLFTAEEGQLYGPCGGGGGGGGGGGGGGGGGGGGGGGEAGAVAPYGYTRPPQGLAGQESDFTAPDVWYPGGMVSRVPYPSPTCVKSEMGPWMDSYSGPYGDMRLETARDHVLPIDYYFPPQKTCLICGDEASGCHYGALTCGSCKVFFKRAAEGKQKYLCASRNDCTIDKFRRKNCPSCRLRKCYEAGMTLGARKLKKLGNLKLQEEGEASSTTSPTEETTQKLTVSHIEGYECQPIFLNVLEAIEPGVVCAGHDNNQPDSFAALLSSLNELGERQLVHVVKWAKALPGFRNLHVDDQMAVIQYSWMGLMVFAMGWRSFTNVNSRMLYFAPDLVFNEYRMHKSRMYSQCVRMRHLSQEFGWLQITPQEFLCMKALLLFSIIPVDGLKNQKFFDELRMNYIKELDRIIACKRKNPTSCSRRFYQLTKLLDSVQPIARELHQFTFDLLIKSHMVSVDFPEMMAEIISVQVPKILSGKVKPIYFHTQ
Conditions: for Ligand Efficiency (LE): from VCaP GRE2-luciferase IC50; for Lipophilic Ligand Efficiency (LLE): from VCaP GRE2-luciferase IC50 and cLogP

[1] = read-out: VCaP GRE2-luciferase IC50, VCaP cells, 1 nM DHT, 24 h, 0–30 µM compound

Procedure: VCaP cells, obtained from the American Type Culture Collection, were maintained in Dulbecco’s Modified Eagles Medium (DMEM) supplemented with 10% foetal bovine serum. Cells were maintained at 37°C without antibiotics in a humidified atmosphere
Transient transfection and Luciferase Activity Assay:
Cells at 70–80% confluence in 24 well plates, were transferred to DMEM
300ng/well of the firefly reporter plasmid, GRE2-TATA-luc using JetPEI (PolyPLUS Transfection) according to the manufacturers’ protocol.
replaced with fresh DMEM +5% CSS containing either DMSO (vehicle control) or 0– 30 µM small molecules together with 1nM DHT. Twenty four hours later, medium was aspirated, cells were washed with PBS and extracted with Passive Lysis Buffer
Cell debris was removed by centrifugation at 13,000 xg for 5min and supernatants collected. Luciferase activity was measured in triplicate, using an in-house luciferase assay buffer (13 mM MgSO4 7H2O, 30 mM
amount of total cellular protein.
Inhibition of hormone-dependent expression of prostate specific antigen (PSA):
VCaP prostate cells were treated with 1 nM DHT in the absence or presence of inhibitor. After 24 hours cells were harvested and PSA detected by Western blotting and normalised against β-actin.
Luciferase activity in cells treated with small molecules was determined as a percentage of the untreated control, which was set at 100%. Plots of activity against small molecule concentration (log) were analysed in GraphPad PRISM 5 and IC50 values for each small molecule determined.

| SMILES | Ligand Efficiency (LE) | IC50 [1] [µM] | Lipophilic Ligand Efficiency (LLE) | activity in VCaP GRE2-luciferase assay (in words) (VCaP cells, 1 nM DHT) | IC50 [µM] | decrease in activity relative to indazole 12 (VCaP GRE2-luciferase IC50 ratio) [fold] |
| --- | --- | --- | --- | --- | --- | --- |
| CSc1ccc(C(=O)N2CCOCC2)cc1-c1cncnc1 [Compound 60] | 0.60 | 0.26 |  |  |  |  |
| Cn1ncc2cc(-c3cc(C(N)=O)ccc3NCc3ccccc3)ccc21 [Compound 52] | 0.46 | 0.94 | 6.2 |  |  |  |
| CSc1ccc(C(N)=O)cc1-c1ccc2[nH]ccc2c1 [Compound 13] | 0.54 | 10.3 | 5.1 |  |  | 10 |
| CSc1ccc(C(N)=O)cc1-c1ccc2occc2c1 [Compound 25] | 0.63 | 0.6 | 5.9 |  |  |  |
| Cn1ncc2cc(-c3cc(C(N)=O)ccc3N3CCOCC3)ccc21 [Compound 53] | 0.41 | > 30 | 6.1 |  |  |  |
| Cn1ncc2cc(-c3cc(C(N)=O)cnc3SCc3ccccc3)ccc21 [Compound 35] | 0.38 | > 30 | 4.7 |  |  |  |
| CSc1ccc(C(N)=O)cc1-c1cc(O)cc(F)c1 [Compound 32] | 0.54 | > 30 | 4.9 | inactive |  |  |
| CSc1ccc(C(N)=O)cc1-c1ccc2cnccc2c1 [Compound 21] | 0.59 |  | 6.0 |  | 0.9 |  |
| CSc1ccc(C(N)=O)cc1-c1ccncc1 [Compound 23] | 0.61 | > 30 | 5.6 | loss of activity |  |  |
| CSc1ccc(C(N)=O)cc1-c1ccno1 [Compound 7] | 0.70 | 7.4 | 6.7 |  |  |  |
| CSc1ccc(C(N)=O)cc1-c1ccc2c(ccn2C)c1 [Compound 17] | 0.66 | 0.09 | 7.0 |  |  |  |
| CSc1ncc(C(N)=O)cc1-c1ccc2c(cnn2C)c1 [Compound 34] | 0.49 | > 30 | 6.2 | loss of activity |  |  |
| COc1ncc(C(N)=O)cc1-c1ccc2c(cnn2C)c1 [Compound 37] | 0.49 | > 30 | 6.5 |  |  |  |
| CSc1ccc(C(N)=O)cc1-c1ccc(F)c(O)c1 [Compound 33] | 0.72 | 0.12 | 7.3 |  |  |  |
| CSc1ccc(C(N)=O)cc1-c1cccc2c1CC(=O)N2 [Compound 19] | 0.49 | > 30 | 5.5 | no activity |  |  |

Second part, led by results:

| Ligand Efficiency (LE) | IC50 [1] [µM] | Lipophilic Ligand Efficiency (LLE) | activity in VCaP GRE2-luciferase assay (in words) (VCaP cells, 1 nM DHT) | IC50 [µM] | SMILES | decrease in activity relative to indazole 12 (VCaP GRE2-luciferase IC50 ratio) [fold] |
| --- | --- | --- | --- | --- | --- | --- |
| 0.38 | > 30 | 4.4 |  |  | Cn1ncc2cc(-c3cc(C(N)=O)ccc3OCc3ccccc3)ccc21 [Compound 47] |  |
|  | > 30 | 5.8 | no activity |  | CSc1ccc(C(N)=O)cc1-c1ccc[nH]1 [Compound 11] |  |
| 0.80 | 0.12 | 8.2 |  |  | CSc1ccc(C(=O)O)cc1-c1cncnc1 [Compound 58] |  |
| 0.60 | 0.24 | 7.3 |  |  | CSc1c(F)cc(C(N)=O)cc1-c1ccc2c(cnn2C)c1 [Compound 38] |  |
| 0.63 | 4.7 | 6.2 |  |  | CSc1ccc(C(N)=O)cc1-c1c(C)noc1C [Compound 10] |  |
| 0.59 | 0.8 | 5.9 |  |  | CSc1ccc(C(N)=O)cc1-c1ccc2ncccc2c1 [Compound 20] |  |
| 0.63 | 0.76 | 6.2 |  |  | COc1ccc(-c2cc(C(N)=O)ccc2SC)cc1F [Compound 29] |  |
| 0.49 | > 30 | 4.8 | Activity was abolished |  | COc1ccc(-c2cc(C(N)=O)ccc2SC)cc1OC [Compound 28] |  |
| 0.61 | > 30 | 5.6 | loss of activity |  | CSc1ccc(C(N)=O)cc1-c1cccnc1 [Compound 22] |  |
| 0.48 | 8.6 | 5.4 |  |  | Cn1ncc2cc(-c3cc(C(N)=O)ccc3C(F)(F)F)ccc21 [Compound 45] |  |
| 0.43 | > 30 | 5.1 | inactive |  | Cn1ncc2cc(-c3cc(C(N)=O)ccc3OCC3CC3)ccc21 [Compound 50] |  |
| 0.43 | > 30 | 4.7 | inactive |  | CC(C)COc1ccc(C(N)=O)cc1-c1ccc2c(cnn2C)c1 [Compound 51] |  |
| 0.54 | > 30 | 5.7 | no bioactivity |  | Cn1ncc2cc(-c3cccc(C(N)=O)c3)ccc21 [Compound 43] |  |
| 0.37 | > 30 | 5.3 |  |  | Cn1ncc2cc(-c3cc(C(N)=O)ccc3NCCN3CCCCC3)ccc21 [Compound 55] |  |
| 0.43 | 0.8 | 7.5 |  |  | Cn1ncc2cc(-c3cc(C(N)=O)ccc3NCCCN3CCOCC3)ccc21 [Compound 56] |  |
| 0.54 | > 30 | 6.7 |  |  | Cn1ncc2cc(-c3cncc(C(N)=O)c3)ccc21 [Compound 36] |  |
| 0.62 | 0.13 | 6.8 |  |  | CSc1ccc(C(=O)N2CCCCC2)cc1-c1cncnc1 [Compound 59] |  |
| 0.54 | > 30 | 4.9 | inactive |  | CSc1ccc(C(N)=O)cc1-c1cccc(O)c1F [Compound 31] |  |
| 0.37 | > 30 | 6.4 |  |  | Cn1ncc2cc(-c3cc(C(N)=O)ccc3NCCN3CCOCC3)ccc21 [Compound 54] |  |
| 0.52 | > 30 | 5.6 | inactive |  | Cn1ncc2cc(-c3cc(C(N)=O)ccc3F)ccc21 [Compound 44] |  |
| 0.52 | > 30 | 4.6 |  |  | CSc1ccc(C(N)=O)cc1-c1ccc2ocnc2c1 [Compound 26] |  |
| 0.52 | > 30 | 6.1 | lack of activity |  | Cn1ncc2cc(-c3cc(C(N)=O)ccc3O)ccc21 [Compound 49] |  |
| 0.49 | > 30 | 5.8 |  |  | COc1ccc(C(N)=O)cc1-c1ccc2c(cnn2C)c1 [Compound 46] |  |
